According to the NIST ThermoML archive (doi:10.1021/je100089s):
± gives the expanded uncertainty stated by the source.

Assay: xn = mol fraction of the nth substance listed
Conditions: Liquid, Vibrating tube method

OCCO [1,2-ethanediol] + C[S+](C)[O-]
mass density [kg/m3]
Conditions	101 kPa	10000 kPa	25000 kPa	50000 kPa	75000 kPa	100000 kPa
288.15 K, x2 = 0	–	–	–	1135.26 ± 0.6	1143.65 ± 0.76	1151.55 ± 0.94
288.15 K, x2 = 0.0181	–	–	–	1135.53 ± 0.6	1143.78 ± 0.76	1151.74 ± 0.94
288.15 K, x2 = 0.0403	–	–	–	1135.69 ± 0.6	1144 ± 0.76	1152.03 ± 0.94
288.15 K, x2 = 0.0701	–	–	–	1135.92 ± 0.6	1144.4 ± 0.77	1152.42 ± 0.94
288.15 K, x2 = 0.1097	–	–	–	1136.1 ± 0.6	1144.77 ± 0.77	1152.92 ± 0.95
288.15 K, x2 = 0.1408	–	–	–	1136.28 ± 0.6	1145.05 ± 0.77	1153.32 ± 0.95
288.15 K, x2 = 0.1934	–	–	–	1136.35 ± 0.6	1145.29 ± 0.77	1153.81 ± 0.95
288.15 K, x2 = 0.234	–	–	1127.02 ± 0.45	1136.51 ± 0.6	1145.4 ± 0.77	1154.03 ± 0.95
288.15 K, x2 = 0.3244	–	–	1126.73 ± 0.45	1136.43 ± 0.6	1145.62 ± 0.77	1154.61 ± 0.95
288.15 K, x2 = 0.3764	–	–	1126.45 ± 0.45	1136.4 ± 0.6	1145.68 ± 0.77	1154.78 ± 0.95
288.15 K, x2 = 0.4429	–	–	1126.08 ± 0.45	1136.29 ± 0.6	1145.64 ± 0.77	1154.83 ± 0.95
288.15 K, x2 = 0.4892	–	–	1125.69 ± 0.45	1136.07 ± 0.6	1145.55 ± 0.77	1154.79 ± 0.95
288.15 K, x2 = 0.5654	–	–	1125.01 ± 0.45	1135.67 ± 0.6	1145.31 ± 0.77	1154.87 ± 0.95
288.15 K, x2 = 0.6946	–	–	1123.4 ± 0.45	1134.56 ± 0.6	1144.55 ± 0.77	1154.68 ± 0.95
298.15 K, x2 = 0	–	1113.97 ± 0.36	1119.78 ± 0.44	1128.78 ± 0.58	1137.41 ± 0.74	–
298.15 K, x2 = 0.0181	–	1114 ± 0.36	1119.85 ± 0.44	1128.92 ± 0.58	1137.62 ± 0.74	–
298.15 K, x2 = 0.0403	–	1114.01 ± 0.36	1119.92 ± 0.44	1129.12 ± 0.58	1137.93 ± 0.74	–
298.15 K, x2 = 0.0701	–	1114.01 ± 0.36	1119.95 ± 0.44	1129.25 ± 0.58	1138.31 ± 0.74	–
298.15 K, x2 = 0.1097	–	1113.67 ± 0.36	1119.88 ± 0.44	1129.29 ± 0.58	–	–
298.15 K, x2 = 0.1408	1109.42 ± 0.32	1113.44 ± 0.36	1119.71 ± 0.44	1129.45 ± 0.58	–	–
298.15 K, x2 = 0.1934	1109.06 ± 0.32	1112.87 ± 0.36	1119.4 ± 0.44	1129.48 ± 0.58	–	–
298.15 K, x2 = 0.234	1108.72 ± 0.32	1112.42 ± 0.36	1119.03 ± 0.44	1129.27 ± 0.58	–	–
298.15 K, x2 = 0.3244	1107.82 ± 0.32	1111.54 ± 0.36	1118.39 ± 0.44	1128.95 ± 0.58	–	–
298.15 K, x2 = 0.3764	1107.21 ± 0.32	1110.95 ± 0.36	1117.96 ± 0.44	1128.79 ± 0.58	–	–
298.15 K, x2 = 0.4429	1106.29 ± 0.31	–	–	1128.43 ± 0.58	–	–
298.15 K, x2 = 0.4892	1105.6 ± 0.31	1109.49 ± 0.36	–	1128.14 ± 0.58	–	–
298.15 K, x2 = 0.5654	1104.44 ± 0.31	1108.61 ± 0.36	1116.04 ± 0.43	1127.67 ± 0.58	–	–
298.15 K, x2 = 0.6946	1102.13 ± 0.31	1106.65 ± 0.36	1114.43 ± 0.43	1126.58 ± 0.58	–	–
298.15 K, x2 = 0.8142	1099.6 ± 0.31	1104.54 ± 0.35	1112.6 ± 0.43	1125.27 ± 0.57	–	–
298.15 K, x2 = 0.867	1098.37 ± 0.31	–	–	–	–	–
298.15 K, x2 = 0.9266	1097.09 ± 0.31	–	1110.81 ± 0.43	1123.79 ± 0.57	–	–
298.15 K, x2 = 0.9836	–	1101.52 ± 0.35	–	1123.02 ± 0.57	–	–
298.15 K, x2 = 0.9968	1095.42 ± 0.31	–	–	–	–	–
